The source of these data is patent US20070093469A1, “Substituted azetidine compounds as cyclooxygenase-1-cyclooxygenase-2 inhibitors, and their preparation and use as medicaments” (LABORATORIOS DEL DR. ESTEVE S.A, priority 2004, published 2007).

Data set [1] deals with T1, Cox-1 enzyme (Ovis aries, UniProt P05979).
T1 construct: purchased Cayman Chemical 60100
T1 sequence (P05979 25-600): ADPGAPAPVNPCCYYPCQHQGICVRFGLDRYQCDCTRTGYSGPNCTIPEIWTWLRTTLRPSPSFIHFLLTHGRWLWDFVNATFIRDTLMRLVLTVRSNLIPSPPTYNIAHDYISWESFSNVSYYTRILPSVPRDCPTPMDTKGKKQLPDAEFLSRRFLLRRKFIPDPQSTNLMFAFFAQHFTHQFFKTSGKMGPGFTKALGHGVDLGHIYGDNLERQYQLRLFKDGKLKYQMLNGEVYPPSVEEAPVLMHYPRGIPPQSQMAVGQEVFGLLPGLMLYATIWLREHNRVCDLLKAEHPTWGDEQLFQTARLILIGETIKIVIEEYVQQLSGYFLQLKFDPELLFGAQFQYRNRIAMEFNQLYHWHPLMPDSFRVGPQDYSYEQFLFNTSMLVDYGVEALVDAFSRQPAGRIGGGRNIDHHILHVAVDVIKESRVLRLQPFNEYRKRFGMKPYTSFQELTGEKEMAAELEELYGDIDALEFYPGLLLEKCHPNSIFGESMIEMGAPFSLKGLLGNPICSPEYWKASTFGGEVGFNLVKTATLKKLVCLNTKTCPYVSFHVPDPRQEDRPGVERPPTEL
The data set can be described thus: Cox-1/Cox-2 enzyme assay (Cox-1). It is filed as biochemical. The following applies: for inhibition at 50 µM: read-out: % inhibition 5 × 10^−5 M COX-1; for IC50: enzyme assay. The protocol:
(§1) I. Cox-1/Cox-2 Enzyme Assay:
(§2) The Cox-1/Cox-2 enzyme assay for the inventive azetidine compounds is carried out according to the following description:
(§3) Immediately after the addition of the substrate, the slope corresponding to the optical density increase at 480 nm is recorded for 1 minute. The reaction is monitored with a Hewlett-Packard 8452A spectrophotometer.

In data set [2] the target is T2, Cox-2 enzyme (Ovis aries, UniProt P79208).
T2 construct: purchased Cayman Chemical 60120
T2 sequence (P79208 17-603): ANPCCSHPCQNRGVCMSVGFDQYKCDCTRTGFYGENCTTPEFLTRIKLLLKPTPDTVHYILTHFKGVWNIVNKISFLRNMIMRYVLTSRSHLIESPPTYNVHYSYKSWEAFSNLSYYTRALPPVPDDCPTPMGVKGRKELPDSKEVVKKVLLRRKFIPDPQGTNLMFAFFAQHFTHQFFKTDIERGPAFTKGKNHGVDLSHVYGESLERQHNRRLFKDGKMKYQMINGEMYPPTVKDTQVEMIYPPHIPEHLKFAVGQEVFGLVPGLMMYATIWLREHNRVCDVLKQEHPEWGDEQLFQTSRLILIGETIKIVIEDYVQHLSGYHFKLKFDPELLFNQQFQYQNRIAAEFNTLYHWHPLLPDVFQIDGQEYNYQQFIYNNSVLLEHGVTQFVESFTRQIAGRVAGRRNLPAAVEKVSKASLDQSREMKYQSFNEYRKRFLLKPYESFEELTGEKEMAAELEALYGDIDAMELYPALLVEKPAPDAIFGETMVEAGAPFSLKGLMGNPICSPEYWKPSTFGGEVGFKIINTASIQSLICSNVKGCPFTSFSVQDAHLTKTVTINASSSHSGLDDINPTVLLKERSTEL
The data set can be described thus: Cox-1/Cox-2 enzyme assay (Cox-2). Type of data set: biochemical. As to conditions: for IC50: enzyme assay. The protocol:
as §1, §2, §3

The target of data set [3] is T3, Cox-1 (Homo sapiens, UniProt P23219).
T3 construct: from tissue; host or cells: fresh human whole blood
T3 sequence (P23219 24-599): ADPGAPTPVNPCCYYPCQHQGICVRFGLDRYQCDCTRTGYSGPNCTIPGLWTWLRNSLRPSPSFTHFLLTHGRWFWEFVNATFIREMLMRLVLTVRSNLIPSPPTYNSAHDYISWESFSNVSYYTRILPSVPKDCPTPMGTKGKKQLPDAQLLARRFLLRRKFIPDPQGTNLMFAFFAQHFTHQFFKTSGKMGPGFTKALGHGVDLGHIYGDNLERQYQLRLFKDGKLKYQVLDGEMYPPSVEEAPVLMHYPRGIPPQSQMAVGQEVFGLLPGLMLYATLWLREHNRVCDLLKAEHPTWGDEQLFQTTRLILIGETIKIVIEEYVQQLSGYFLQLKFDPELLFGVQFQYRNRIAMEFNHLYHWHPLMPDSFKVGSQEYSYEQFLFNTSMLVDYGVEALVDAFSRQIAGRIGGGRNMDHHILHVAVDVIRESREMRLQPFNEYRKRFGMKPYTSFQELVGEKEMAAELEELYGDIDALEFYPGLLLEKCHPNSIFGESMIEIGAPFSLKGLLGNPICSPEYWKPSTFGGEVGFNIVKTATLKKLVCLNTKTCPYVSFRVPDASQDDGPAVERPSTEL
Description: Cox-1 activity in human whole blood (TXB2). Type of data set: cell-based. As to conditions: read-out: hWB inhibition COX-1 IC50. As for the experimental part:
(§4) II. Determination of Cox-1- and Cox-2-Activity in Human Whole Blood
(§5) The Cox-1- and Cox-2-activity in human whole blood is determined according to a modification of the method described in the publication of C. Brideau et al., “A human whole blood assay for clinical evaluation of biochemical efficacy of cyclooxygenase inhibitors”, Inflamm Res 1996; 45: 68-74. The respective part of the description is hereby incorporated by reference and forms part of the present disclosure.
For Cox-1 activity determination, fresh human blood is distributed in a volume of 0.5 ml to silicone Eppendorf tubes, into which 2 μl of the compound to be tested or dimethylsulfoxide (DMSO) at a final concentration of 0.4% (volume/volume). The tubes are inverted for homogenization and incubated for 1 hour at 37° C. under slight stirring. Afterwards they are centrifuged for 15 min at 10500 g and 100 μl of serum is collected. Proteins are precipitated by the addition of 400 μl of methanol to each tube, tubes were centrifuged for 10 minutes at 5000 g and 300 μl of supernatant is aspirated and then dried under nitrogen atmosphere.
Tromboxane B2 (TXB2) concentration is quantified using an assay kit (Caymann Chemical, Ann Arbor, Mich., U.S.A., Catalogue number 519031) after reconstitution into 300 μl assay buffer supplied in the assay kit.

Data set [4] deals with T4, Cox-2 (Homo sapiens, UniProt P35354).
T4 construct: 0.5 ml of fresh human blood; from tissue; host or cells: fresh human whole blood stimulated with E. coli 0111:B4 LPS
T4 sequence (P35354 18-604): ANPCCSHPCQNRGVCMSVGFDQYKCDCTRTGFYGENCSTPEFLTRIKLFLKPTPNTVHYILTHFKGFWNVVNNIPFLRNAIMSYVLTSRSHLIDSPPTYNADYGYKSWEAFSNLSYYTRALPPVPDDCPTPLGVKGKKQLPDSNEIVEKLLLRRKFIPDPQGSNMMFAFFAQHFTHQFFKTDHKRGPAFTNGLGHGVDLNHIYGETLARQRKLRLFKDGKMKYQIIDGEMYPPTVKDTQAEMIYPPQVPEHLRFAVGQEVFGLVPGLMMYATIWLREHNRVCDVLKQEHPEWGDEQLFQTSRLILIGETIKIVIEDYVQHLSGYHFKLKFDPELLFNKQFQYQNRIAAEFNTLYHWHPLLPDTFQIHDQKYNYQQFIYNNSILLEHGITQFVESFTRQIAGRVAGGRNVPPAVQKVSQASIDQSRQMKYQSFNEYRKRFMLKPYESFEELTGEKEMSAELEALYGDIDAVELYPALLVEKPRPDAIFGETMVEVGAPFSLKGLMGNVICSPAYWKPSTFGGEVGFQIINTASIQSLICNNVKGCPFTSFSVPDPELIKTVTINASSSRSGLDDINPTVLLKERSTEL
The data set can be described thus: Cox-2 activity in human whole blood (LPS, PGE2). Type of data set: cell-based. The following applies: read-out: hWB inhibition COX-2 IC50. The protocol:
as §4, §5
For Cox-2 activity determination, tubes are prepared with 2 μl of the compound to be tested or DMSO, 12 μg/ml of aspirine, 9 μl of 1% (weight/volume) sodium heparine and 0.5 ml of fresh human blood. Samples are pre-incubated at 37° C. during 15 minutes and E. coli 0111:B4 LPS (from Sigma Chemical, St. Louis, Mo. U.S.A., catalogue number L-3012) are added for incubation during 24 h at 37° C. The samples are centrifuged for 100 μl of plasma collection. 400 μl of Ethyl acetate and 1% (volume/volume) methanol are added to each sample and the tubes are stirred and centrifuged for 10 minutes at 5000 g at 4° C. 300μl of supernatant are aspirated and evaporated under nitrogen atmosphere. Prostaglandin E2 concentration is quantified using an assay kit from Cayman Chemical, Ann-Arbor, Mich., U.S.A. (Catalogue number: 514010 ) after reconstitution into 300 μl assay buffer supplied in the assay kit.

Data set [5] relates to rats. The data set can be described thus: Test for antiarthritic activity in rats (adjuvant). Type of data set: in vivo. As to conditions: Rattus norvegicus, daily oral route from day 15, read on day 25. As for the experimental part: V: Test for Antiarthritic Activity in Rats
The test for antiarthritic activity is carried out as described in the publication of Anderson et al., J. Clin. Invest. 97, 11, 2672-2679, (1996). The respective part of the description is hereby incorporated by reference and forms part of the present disclosure.
On day 0 of the experiment, the volumes of the contralateral paws to those injected, i.e. left hind paws, are measured by means of a pletismometer, the readings of which are expressed in ml.
Next, each rat is injected the adjuvant, consisting of 1 mg of Mycobacterium butyricum suspended in 0.1 ml of mineral oil, via subplantar route in the right hind paw.
Approximately every day, and for 15 days after the injection of adjuvant, the volumes of non-injected hind paws (contralateral) are measured again. […]
On day 15 of the experiment, daily administration of the compounds to be tested via oral route is started, and on each day, the volumes of non-injected hind paws is recorded.
On Day 25 of the experiment, the body weights and non-injected hind paws (contralateral) volumes are measured for the last time, and these values were used to determine the activities.

As usually defined, the inhibition is the change of the read-out against control, counted positive when it falls. A word on the melting point: it is the temperature, or range, at which the solid turns liquid. As usually defined, the IC50 is the concentration at which inhibition is half-maximal. The ED50 is the dose at which the effect has come halfway, by size or by number of responders.

`CC(C)(C)c1cc(CC(=O)N2CC(O)C2)cc(C(C)(C)C)c1O` [Example 18, 2-(3,5-di-tert-butyl-4-hydroxy-phenyl)-1-(3-hydroxy-azetidin-1-yl)-ethanone] registered a melting point of 154 to 156 °C. Also, the inhibition at 50 µM in data set [1] is 4%. Moreover, the inhibition at 50 µM in data set [2] (read-out: % inhibition 5 × 10^−5 M COX-2) was found to be 1%.
`CC(C)(C)c1cc(C(=O)N2CC(O)C2)cc(C(C)(C)C)c1O` [Example 1, (3,5-di-tert-butyl-4-hydroxy-phenyl)-(3-hydroxy-azetidin-1-yl)-methanone] returned a melting point of 185 to 189 °C. In addition, in data set [1], the midpoint of inhibition, the IC50, lay at 37700 nM. The same compound yielded an IC50 in data set [2] of 1510 nM. The IC50 in data set [3] amounted to 100 nM. Also, the IC50 in data set [4] was 200 nM. Besides, the ED50 in data set [5] worked out at 0.5 mg/kg.
`CC(C)(C)c1cc(C(=O)N2CC(Br)C2)cc(C(C)(C)C)c1O` [Example 7, (3-Bromo-azetidin-1-yl)-(3,5-di-tert-butyl-4-hydroxy-phenyl)-methanone] registered a melting point of 160 to 163 °C. Besides, in data set [1], the inhibition at 50 µM was found to be 35%. The IC50 in data set [2] was 200 nM.
Regarding `CC1(O)CN(C(=O)c2cc(C(C)(C)C)c(O)c(C(C)(C)C)c2)C1` [Example 3, (3,5-di-tert-butyl-4-hydroxy-phenyl)-(3-hydroxy-3-methyl-azetidin-1-yl)-methanone], the melting point is 148 to 153 °C. In data set [1], the IC50 amounted to 349000 nM. For the same compound, in data set [2], the IC50 is 3510 nM. In data set [3], the 50% inhibitory concentration (IC50) came out at 100 nM. Also, in data set [4], the IC50 is 100 nM. Besides, the ED50 in data set [5] is 0.34 mg/kg.
